Data as given in ChEMBL document CHEMBL4007388, “Synthesis and antiproliferative activity of monocationic arylthiophene derivatives” (Eur J Med Chem, 2017).

Key:
[1] = Antioxidant activity assessed as superoxide dismutase-like activity by measuring inhibition of superoxide radical anion production at 2 uM by NBT reduction assay relative to control; type: functional
Escherichia coli = test: Induction of Escherichia coli genomic DNA cleavage after 1 hr by agarose gel electrophoresis method

Row | Activity (Escherichia coli) | SMILES | inhibition [1]
1 | Dose-dependent effect | CN(C)c1ccc(-c2ccc(-c3ccc(C(=N)N)c(F)c3)s2)cc1 | 56.7%
2 |  | N#Cc1ccc(-c2ccc(-c3ccc(Cl)cc3)s2)cc1F | 35.3%
3 |  | COc1ccc(-c2ccc(-c3ccc(C#N)c(F)c3)s2)cc1 | 35%
